Test results from ChEMBL document CHEMBL3991601, “The target landscape of clinical kinase drugs” (Science, 2017).
Calls of active or inactive are those of the source.

What was measured:
[1] = biological target: PAS domain-containing serine/threonine-protein kinase (Homo sapiens, UniProt Q96RG2)
[2] = biological target: Serine/threonine-protein kinase PAK 6 (Homo sapiens, UniProt Q9NQU5)
[3] = biological target: Ephrin type-A receptor 7 (Homo sapiens, UniProt Q15375)
[4] = biological target: Uncharacterized aarF domain-containing protein kinase 5 (Homo sapiens, UniProt Q3MIX3)
[5] = biological target: Dual specificity protein kinase CLK2 (Homo sapiens, UniProt P49760)
[6] = biological target: Membrane-associated progesterone receptor component 1 (Homo sapiens, UniProt O00264)
[7] = biological target: Protein kinase C theta type (Homo sapiens, UniProt Q04759)
[8] = biological target: T1, Dual specificity protein kinase TTK (Homo sapiens, UniProt P33981)
T1 sequence (P33981 whole entry): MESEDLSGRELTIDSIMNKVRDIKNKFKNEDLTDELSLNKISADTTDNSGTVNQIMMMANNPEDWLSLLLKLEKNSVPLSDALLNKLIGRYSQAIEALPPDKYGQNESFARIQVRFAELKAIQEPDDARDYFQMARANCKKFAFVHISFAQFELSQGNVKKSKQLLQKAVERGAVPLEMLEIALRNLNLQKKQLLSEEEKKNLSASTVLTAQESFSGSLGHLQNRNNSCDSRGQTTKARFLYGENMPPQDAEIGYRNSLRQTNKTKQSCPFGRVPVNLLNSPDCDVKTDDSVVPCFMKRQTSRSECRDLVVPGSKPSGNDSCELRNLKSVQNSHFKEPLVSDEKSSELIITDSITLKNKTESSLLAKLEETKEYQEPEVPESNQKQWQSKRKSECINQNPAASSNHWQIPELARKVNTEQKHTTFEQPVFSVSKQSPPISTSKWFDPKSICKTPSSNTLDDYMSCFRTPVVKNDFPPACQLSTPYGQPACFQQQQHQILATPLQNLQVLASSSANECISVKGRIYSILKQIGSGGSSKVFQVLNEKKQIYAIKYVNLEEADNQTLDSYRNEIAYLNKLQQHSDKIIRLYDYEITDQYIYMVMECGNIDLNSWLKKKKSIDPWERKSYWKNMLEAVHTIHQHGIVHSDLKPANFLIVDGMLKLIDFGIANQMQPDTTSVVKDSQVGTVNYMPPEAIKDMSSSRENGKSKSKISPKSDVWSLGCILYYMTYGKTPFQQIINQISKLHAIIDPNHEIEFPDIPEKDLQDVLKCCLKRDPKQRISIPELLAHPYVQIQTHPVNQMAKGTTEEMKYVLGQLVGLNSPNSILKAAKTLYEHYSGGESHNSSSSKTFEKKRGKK

[9] = biological target: Serine/threonine-protein kinase ATR (Homo sapiens, UniProt Q13535)
[10] = biological target: Dual specificity testis-specific protein kinase 1 (Homo sapiens, UniProt Q15569)
[11] = biological target: Cyclin-dependent kinase 2 (Homo sapiens, UniProt P24941)
[12] = biological target: Obg-like ATPase 1 (Homo sapiens, UniProt Q9NTK5)
[13] = biological target: Epidermal growth factor receptor (Homo sapiens, UniProt P00533)
[14] = biological target: Cell division cycle 7-related protein kinase (Homo sapiens, UniProt O00311)
[15] = biological target: Choline-phosphate cytidylyltransferase A (Homo sapiens, UniProt P49585)
[16] = biological target: T2, Eukaryotic translation initiation factor 5B (Homo sapiens, UniProt O60841)
T2 sequence (O60841 whole entry): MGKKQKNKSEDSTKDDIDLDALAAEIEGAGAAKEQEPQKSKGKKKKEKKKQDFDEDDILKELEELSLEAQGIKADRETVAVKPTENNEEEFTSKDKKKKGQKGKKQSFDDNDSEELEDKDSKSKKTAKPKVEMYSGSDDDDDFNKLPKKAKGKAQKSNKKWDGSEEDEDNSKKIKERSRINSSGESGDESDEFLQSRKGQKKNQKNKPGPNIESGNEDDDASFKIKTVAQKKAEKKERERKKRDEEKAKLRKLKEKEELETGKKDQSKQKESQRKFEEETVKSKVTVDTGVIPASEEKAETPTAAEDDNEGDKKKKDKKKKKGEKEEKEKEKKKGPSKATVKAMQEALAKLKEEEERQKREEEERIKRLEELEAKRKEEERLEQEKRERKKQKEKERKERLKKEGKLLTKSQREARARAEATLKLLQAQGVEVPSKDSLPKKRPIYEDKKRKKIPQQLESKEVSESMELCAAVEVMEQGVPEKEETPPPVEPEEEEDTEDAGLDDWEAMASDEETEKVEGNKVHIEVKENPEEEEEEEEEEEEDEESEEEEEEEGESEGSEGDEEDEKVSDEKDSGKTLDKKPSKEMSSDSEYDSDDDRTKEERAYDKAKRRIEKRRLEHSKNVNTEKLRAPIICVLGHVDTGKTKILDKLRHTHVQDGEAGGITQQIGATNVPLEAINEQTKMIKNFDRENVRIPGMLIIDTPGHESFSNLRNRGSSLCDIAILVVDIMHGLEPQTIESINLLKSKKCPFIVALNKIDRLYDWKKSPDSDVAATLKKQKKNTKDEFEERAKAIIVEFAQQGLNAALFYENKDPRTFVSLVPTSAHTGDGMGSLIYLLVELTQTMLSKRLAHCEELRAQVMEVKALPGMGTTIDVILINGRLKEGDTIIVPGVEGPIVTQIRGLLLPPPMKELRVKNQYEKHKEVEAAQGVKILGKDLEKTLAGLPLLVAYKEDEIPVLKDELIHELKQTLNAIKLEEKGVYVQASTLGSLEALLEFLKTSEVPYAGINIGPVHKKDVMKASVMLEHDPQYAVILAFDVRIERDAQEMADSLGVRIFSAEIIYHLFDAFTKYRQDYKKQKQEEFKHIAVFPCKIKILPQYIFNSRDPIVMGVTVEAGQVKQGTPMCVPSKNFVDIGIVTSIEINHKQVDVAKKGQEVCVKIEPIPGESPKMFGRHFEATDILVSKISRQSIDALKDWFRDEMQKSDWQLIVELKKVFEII
Further: in the data inactive means no Kd found up to 30 µM.

Chain of Choline-phosphate cytidylyltransferase A (P49585 whole entry): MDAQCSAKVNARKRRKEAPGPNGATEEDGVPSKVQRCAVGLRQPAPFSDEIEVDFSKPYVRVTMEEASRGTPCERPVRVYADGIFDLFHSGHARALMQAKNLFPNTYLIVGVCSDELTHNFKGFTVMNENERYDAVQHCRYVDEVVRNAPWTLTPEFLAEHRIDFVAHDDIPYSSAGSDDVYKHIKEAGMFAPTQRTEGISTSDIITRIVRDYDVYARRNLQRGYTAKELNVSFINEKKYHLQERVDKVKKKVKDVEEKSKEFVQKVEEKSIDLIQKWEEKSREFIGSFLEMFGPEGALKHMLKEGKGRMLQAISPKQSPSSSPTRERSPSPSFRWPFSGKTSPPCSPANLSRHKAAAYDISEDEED
Chain of Membrane-associated progesterone receptor component 1 (O00264 whole entry): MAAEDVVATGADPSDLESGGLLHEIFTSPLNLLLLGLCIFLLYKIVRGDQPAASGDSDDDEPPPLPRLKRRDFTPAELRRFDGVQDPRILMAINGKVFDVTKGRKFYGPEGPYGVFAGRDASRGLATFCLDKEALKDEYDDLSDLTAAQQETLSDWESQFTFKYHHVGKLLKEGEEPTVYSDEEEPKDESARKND
Chain of Serine/threonine-protein kinase ATR (Q13535 whole entry): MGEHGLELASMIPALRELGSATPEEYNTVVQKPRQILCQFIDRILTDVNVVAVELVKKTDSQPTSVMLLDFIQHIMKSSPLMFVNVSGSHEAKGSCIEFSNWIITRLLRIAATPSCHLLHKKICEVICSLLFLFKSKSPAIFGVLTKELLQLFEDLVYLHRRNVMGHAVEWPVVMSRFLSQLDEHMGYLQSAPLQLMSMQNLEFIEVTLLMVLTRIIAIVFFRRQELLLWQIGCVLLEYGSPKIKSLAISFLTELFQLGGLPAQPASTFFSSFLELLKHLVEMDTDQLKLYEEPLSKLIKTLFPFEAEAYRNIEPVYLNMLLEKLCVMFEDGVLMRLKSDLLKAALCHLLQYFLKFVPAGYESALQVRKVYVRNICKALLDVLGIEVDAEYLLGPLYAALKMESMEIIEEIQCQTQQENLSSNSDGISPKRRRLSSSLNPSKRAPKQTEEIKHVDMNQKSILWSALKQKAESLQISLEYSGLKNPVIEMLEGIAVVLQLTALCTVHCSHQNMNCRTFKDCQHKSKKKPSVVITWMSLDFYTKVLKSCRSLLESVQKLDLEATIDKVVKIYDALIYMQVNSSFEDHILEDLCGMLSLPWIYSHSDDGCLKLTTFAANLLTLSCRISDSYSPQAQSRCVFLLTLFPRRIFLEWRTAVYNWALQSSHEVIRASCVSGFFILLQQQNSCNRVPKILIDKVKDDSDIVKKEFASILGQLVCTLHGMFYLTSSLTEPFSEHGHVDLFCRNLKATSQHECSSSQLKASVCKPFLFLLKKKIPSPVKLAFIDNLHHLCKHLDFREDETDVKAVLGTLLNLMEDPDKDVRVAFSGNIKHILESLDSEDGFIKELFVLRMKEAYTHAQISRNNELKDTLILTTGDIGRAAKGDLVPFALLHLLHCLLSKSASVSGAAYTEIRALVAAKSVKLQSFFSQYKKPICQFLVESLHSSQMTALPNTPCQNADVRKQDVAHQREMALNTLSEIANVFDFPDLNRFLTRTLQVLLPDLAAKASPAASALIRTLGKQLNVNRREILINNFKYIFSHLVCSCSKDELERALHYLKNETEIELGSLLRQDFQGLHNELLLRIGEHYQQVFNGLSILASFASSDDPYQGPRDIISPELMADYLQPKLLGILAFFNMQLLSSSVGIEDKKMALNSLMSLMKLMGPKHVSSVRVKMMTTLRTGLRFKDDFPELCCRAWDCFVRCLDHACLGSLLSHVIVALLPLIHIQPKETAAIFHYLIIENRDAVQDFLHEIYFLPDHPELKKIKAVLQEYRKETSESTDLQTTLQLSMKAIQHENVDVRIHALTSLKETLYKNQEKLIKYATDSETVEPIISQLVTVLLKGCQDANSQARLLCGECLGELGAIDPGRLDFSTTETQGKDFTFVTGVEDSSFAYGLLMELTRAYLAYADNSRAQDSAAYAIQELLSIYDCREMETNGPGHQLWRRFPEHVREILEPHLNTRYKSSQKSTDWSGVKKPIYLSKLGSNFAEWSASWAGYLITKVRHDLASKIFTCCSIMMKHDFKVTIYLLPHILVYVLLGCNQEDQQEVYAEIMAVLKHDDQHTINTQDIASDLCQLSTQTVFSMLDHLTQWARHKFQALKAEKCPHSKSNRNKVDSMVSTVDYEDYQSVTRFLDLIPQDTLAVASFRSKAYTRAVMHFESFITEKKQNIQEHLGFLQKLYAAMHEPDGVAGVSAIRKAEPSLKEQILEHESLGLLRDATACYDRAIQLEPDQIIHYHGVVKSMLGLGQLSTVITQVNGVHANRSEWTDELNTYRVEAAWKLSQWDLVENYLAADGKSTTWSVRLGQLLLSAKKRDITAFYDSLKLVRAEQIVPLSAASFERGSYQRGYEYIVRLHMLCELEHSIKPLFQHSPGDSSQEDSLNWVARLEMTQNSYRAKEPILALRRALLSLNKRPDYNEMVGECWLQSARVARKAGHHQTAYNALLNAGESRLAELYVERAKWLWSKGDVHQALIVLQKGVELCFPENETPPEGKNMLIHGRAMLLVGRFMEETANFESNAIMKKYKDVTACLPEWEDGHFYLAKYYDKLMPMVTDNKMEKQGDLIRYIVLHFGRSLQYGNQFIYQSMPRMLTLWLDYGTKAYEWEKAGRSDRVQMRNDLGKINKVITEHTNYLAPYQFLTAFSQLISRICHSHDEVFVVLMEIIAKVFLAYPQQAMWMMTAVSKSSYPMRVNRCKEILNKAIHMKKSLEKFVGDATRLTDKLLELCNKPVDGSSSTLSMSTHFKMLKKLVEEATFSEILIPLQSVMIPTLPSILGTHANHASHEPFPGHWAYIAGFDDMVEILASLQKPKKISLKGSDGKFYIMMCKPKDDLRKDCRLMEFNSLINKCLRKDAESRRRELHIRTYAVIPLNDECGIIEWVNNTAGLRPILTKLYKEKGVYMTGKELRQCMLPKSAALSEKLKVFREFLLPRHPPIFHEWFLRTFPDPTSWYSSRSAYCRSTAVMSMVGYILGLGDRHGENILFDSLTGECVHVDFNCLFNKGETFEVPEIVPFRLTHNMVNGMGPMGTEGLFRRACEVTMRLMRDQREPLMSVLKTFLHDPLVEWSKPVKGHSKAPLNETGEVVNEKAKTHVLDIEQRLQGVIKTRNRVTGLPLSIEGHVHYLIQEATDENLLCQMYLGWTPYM
Chain of Cell division cycle 7-related protein kinase (O00311 whole entry): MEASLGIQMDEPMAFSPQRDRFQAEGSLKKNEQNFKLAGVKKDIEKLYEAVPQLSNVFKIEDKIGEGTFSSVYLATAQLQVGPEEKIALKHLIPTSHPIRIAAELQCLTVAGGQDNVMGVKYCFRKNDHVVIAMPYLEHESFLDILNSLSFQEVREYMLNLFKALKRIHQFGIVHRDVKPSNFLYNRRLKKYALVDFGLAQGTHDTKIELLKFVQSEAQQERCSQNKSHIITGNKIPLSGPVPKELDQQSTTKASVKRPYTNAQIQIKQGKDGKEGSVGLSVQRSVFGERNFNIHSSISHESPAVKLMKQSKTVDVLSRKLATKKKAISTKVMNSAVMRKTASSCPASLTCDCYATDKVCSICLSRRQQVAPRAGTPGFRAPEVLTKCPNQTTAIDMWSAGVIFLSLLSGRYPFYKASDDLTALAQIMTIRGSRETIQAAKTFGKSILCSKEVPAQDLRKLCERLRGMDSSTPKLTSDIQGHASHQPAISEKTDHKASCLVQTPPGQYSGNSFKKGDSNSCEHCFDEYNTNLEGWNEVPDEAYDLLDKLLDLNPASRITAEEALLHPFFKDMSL
Chain of Ephrin type-A receptor 7 (Q15375 whole entry, the tested form may be a part): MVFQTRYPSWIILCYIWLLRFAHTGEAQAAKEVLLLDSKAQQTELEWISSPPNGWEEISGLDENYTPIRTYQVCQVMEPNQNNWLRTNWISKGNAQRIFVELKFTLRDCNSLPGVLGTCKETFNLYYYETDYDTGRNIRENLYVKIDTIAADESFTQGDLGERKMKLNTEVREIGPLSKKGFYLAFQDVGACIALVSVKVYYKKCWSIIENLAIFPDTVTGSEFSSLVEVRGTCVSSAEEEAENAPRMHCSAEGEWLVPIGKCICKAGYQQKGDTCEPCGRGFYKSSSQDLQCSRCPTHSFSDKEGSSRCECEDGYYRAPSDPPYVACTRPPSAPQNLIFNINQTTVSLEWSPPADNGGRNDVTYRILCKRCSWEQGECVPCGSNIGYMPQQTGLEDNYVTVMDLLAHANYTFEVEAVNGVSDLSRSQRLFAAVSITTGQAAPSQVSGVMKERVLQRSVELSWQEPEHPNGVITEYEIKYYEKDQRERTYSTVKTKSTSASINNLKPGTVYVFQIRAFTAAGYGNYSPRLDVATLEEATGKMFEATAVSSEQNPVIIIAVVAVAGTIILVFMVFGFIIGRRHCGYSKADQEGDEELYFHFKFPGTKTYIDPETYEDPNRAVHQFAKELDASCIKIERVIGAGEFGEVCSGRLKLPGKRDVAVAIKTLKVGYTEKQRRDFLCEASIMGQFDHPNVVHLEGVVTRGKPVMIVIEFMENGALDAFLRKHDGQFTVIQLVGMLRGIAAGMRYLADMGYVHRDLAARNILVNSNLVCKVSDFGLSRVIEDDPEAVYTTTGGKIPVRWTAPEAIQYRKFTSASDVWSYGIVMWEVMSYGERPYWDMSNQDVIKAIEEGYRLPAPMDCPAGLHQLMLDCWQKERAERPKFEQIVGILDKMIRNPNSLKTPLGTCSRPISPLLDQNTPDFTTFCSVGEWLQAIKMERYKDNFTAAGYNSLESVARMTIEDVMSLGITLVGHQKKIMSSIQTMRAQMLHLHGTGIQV

| Kd [1] | Kd [2] | Kd [3] | Kd [4] | Kd [5] | Kd [6] | Kd [7] | Kd [8] | Kd [9] | Kd [10] | Kd [11] | Kd [12] | Kd [13] | Kd [14] | Kd [15] | Kd [16] | Structure (SMILES) |
| --- | --- | --- | --- | --- | --- | --- | --- | --- | --- | --- | --- | --- | --- | --- | --- | --- |
| > 30 µM (inactive) | > 30 µM (inactive) | > 30 µM (inactive) | > 30 µM (inactive) | > 30 µM (inactive) | – | > 30 µM (inactive) | > 30 µM (inactive) | > 30 µM (inactive) | > 30 µM (inactive) | > 30 µM (inactive) | > 30 µM (inactive) | – | > 30 µM (inactive) | > 30 µM (inactive) | > 30 µM (inactive) | CCN1CCN(Cc2ccc(-c3cc4c(N[C@H](C)c5ccccc5)ncnc4[nH]3)cc2)CC1 [AEE-788] |
| > 30 µM (inactive) | > 30 µM (inactive) | > 30 µM (inactive) | – | > 30 µM (inactive) | > 30 µM (inactive) | > 30 µM (inactive) | > 30 µM (inactive) | – | > 30 µM (inactive) | > 30 µM (inactive) | > 30 µM (inactive) | > 30 µM (inactive) | > 30 µM (inactive) | – | – | O=c1sn(-c2cccc3ccccc23)c(=O)n1Cc1ccccc1 [TIDEGLUSIB] |
| – | > 30 µM (inactive) | > 30 µM (inactive) | > 30 µM (inactive) | > 30 µM (inactive) | – | > 30 µM (inactive) | > 30 µM (inactive) | > 30 µM (inactive) | > 30 µM (inactive) | > 30 µM (inactive) | – | 20.8 µM (active) | – | > 30 µM (inactive) | > 30 µM (inactive) | COc1cc(N2CCC(N3CCN(C)CC3)CC2)ccc1Nc1ncnc(Nc2ccccc2S(=O)(=O)C(C)C)n1 [ASP-3026] |
| > 30 µM (inactive) | – | – | – | – | > 30 µM (inactive) | – | 0.016 µM | – | – | – | > 30 µM (inactive) | – | – | > 30 µM (inactive) | > 30 µM (inactive) | Cc1nc(N)sc1-c1ccnc(Nc2ccc(N3CCOCC3)cc2)n1 [CYC-116] |
| > 30 µM (inactive) | – | > 30 µM (inactive) | – | > 30 µM (inactive) | – | > 30 µM (inactive) | > 30 µM (inactive) | > 30 µM (inactive) | > 30 µM (inactive) | > 30 µM (inactive) | > 30 µM (inactive) | > 30 µM (inactive) | – | – | > 30 µM (inactive) | Cc1ccc(S(=O)(=O)Nc2nc3ccccc3nc2Nc2ccc3nsnc3c2)cc1 |
| > 30 µM (inactive) | > 30 µM (inactive) | > 30 µM (inactive) | – | > 30 µM (inactive) | – | > 30 µM (inactive) | > 30 µM (inactive) | – | > 30 µM (inactive) | > 30 µM (inactive) | > 30 µM (inactive) | > 30 µM (inactive) | > 30 µM (inactive) | > 30 µM (inactive) | – | CN1CCC(CNc2ccc3ncc(-c4cccc(OC(F)(F)F)c4)n3n2)CC1 [SGI-1776] |
| > 30 µM (inactive) | > 30 µM (inactive) | > 30 µM (inactive) | > 30 µM (inactive) | > 30 µM (inactive) | > 30 µM (inactive) | > 30 µM (inactive) | > 30 µM (inactive) | > 30 µM (inactive) | > 30 µM (inactive) | > 30 µM (inactive) | > 30 µM (inactive) | > 30 µM (inactive) | – | > 30 µM (inactive) | > 30 µM (inactive) | Cc1cc([C@@H](C)Nc2ccccc2C(=O)O)c2nc(N3CCOCC3)cc(=O)n2c1 [AZD-6482] |
| > 30 µM (inactive) | > 30 µM (inactive) | > 30 µM (inactive) | – | > 30 µM (inactive) | > 30 µM (inactive) | > 30 µM (inactive) | > 30 µM (inactive) | > 30 µM (inactive) | > 30 µM (inactive) | > 30 µM (inactive) | > 30 µM (inactive) | > 30 µM (inactive) | – | – | > 30 µM (inactive) | COc1ccc(-c2ccc3c(N4CCOC[C@@H]4C)nc(N4CCOC[C@@H]4C)nc3n2)cc1CO [AZD-8055] |
| > 30 µM (inactive) | – | > 30 µM (inactive) | > 30 µM (inactive) | – | > 30 µM (inactive) | – | > 30 µM (inactive) | > 30 µM (inactive) | > 30 µM (inactive) | – | > 30 µM (inactive) | > 30 µM (inactive) | – | > 30 µM (inactive) | > 30 µM (inactive) | CN(C)C(=O)c1cc2cnc(Nc3ccc(N4CCNCC4)cn3)nc2n1C1CCCC1 [RIBOCICLIB] |

| Structure (SMILES) | Kd [1] | Kd [2] | Kd [3] | Kd [4] | Kd [5] | Kd [6] | Kd [7] | Kd [8] | Kd [9] | Kd [10] | Kd [11] | Kd [12] | Kd [13] | Kd [14] | Kd [15] | Kd [16] |
| --- | --- | --- | --- | --- | --- | --- | --- | --- | --- | --- | --- | --- | --- | --- | --- | --- |
| Cc1cc(-c2cc(O)ccc2Cl)cc2nnc(Nc3ccc(OCCN4CCCC4)cc3)nc12 | > 30 µM (inactive) | > 30 µM (inactive) | > 30 µM (inactive) | > 30 µM (inactive) | > 30 µM (inactive) | > 30 µM (inactive) | > 30 µM (inactive) | > 30 µM (inactive) | > 30 µM (inactive) | > 30 µM (inactive) | > 30 µM (inactive) | > 30 µM (inactive) | > 30 µM (inactive) | > 30 µM (inactive) | – | – |
| COC(=O)[C@@]1(O)C[C@H]2O[C@]1(C)n1c3ccccc3c3c4c(c5c6ccccc6n2c5c31)C(=O)NC4 [K-252A] | – | > 30 µM (inactive) | > 30 µM (inactive) | > 30 µM (inactive) | 3.81 µM (active) | > 30 µM (inactive) | – | 0.03 µM | – | > 30 µM (inactive) | – | – | > 30 µM (inactive) | – | – | > 30 µM (inactive) |
| Cc1ccc(-n2nc(C(C)(C)C)cc2NC(=O)NCc2cc(F)ccc2Oc2ccc3c(cnn3CCO)c2)cc1 [PEXMETINIB] | > 30 µM (inactive) | > 30 µM (inactive) | 3.31 µM (active) | – | > 30 µM (inactive) | > 30 µM (inactive) | > 30 µM (inactive) | > 30 µM (inactive) | – | > 30 µM (inactive) | > 30 µM (inactive) | > 30 µM (inactive) | > 30 µM (inactive) | > 30 µM (inactive) | > 30 µM (inactive) | > 30 µM (inactive) |
